Results reported in patent US4517002A (priority 1983, dated 1985).

Legend:
urease [1] = type: biochemical; details: pH 7.2
urease [2] = type: biochemical; details: pH 5.4

C=CCOP(N)(N)=O [Experiment 6]
% Inhibition Cazenovia Soil (urease [1]): 65%
% Inhibition Wisconsin Soil (urease [2]): 38%

CCCOP(N)(N)=O [Experiment 10]
% Inhibition Cazenovia Soil (urease [1]): 15%

NP(N)(=O)OC1CCCCC1 [Experiment 11]
% Inhibition Cazenovia Soil (urease [1]): 85%

NP(N)(=O)OCC(F)(F)F [Experiment 1]
% Inhibition Cazenovia Soil (urease [1]): 97%
% Inhibition Wisconsin Soil (urease [2]): 90%

COP(N)(N)=O [Experiment 9]
% Inhibition Cazenovia Soil (urease [1]): 34%

NP(N)(=O)OCCCCl [Experiment 8]
% Inhibition Cazenovia Soil (urease [1]): 41%
% Inhibition Wisconsin Soil (urease [2]): 22%

NP(N)(=O)OCc1ccccc1 [Experiment 7]
% Inhibition Cazenovia Soil (urease [1]): 69%
% Inhibition Wisconsin Soil (urease [2]): 20%

NP(N)(=O)OCC(Cl)(Cl)Cl [Experiment 2]
% Inhibition Cazenovia Soil (urease [1]): 97%
% Inhibition Wisconsin Soil (urease [2]): 87%

NP(N)(=O)OC1C(Cl)(Cl)CCCC1(Cl)Cl [Experiment 12]
% Inhibition Cazenovia Soil (urease [1]): 38%

NP(N)(=O)OCCCl [Experiment 4]
% Inhibition Cazenovia Soil (urease [1]): 84%

NP(N)(=O)OCCBr [Experiment 3]
% Inhibition Cazenovia Soil (urease [1]): 85%
